According to US20220226484A1, “THERAPEUTIC PEPTIDES” (COHBAR, INC., priority 2019, published 2022):
Non-standard residues stand in square brackets, D forms with d. Primed or numbered codes have the meaning given here. No end group written: not given here. PEG12′ = not defined here

How the values were obtained:
[1] = test system: bleomycin-induced lung fibrosis in male C57BL/6 mice; experiment: Therapeutic mouse model of idiopathic pulmonary fibrosis (bleomycin); format: in vivo; conditions: peptide 5 mg/kg/day intraperitoneal, nintedanib 60 mg/kg/day PO
From the text: The effect of the peptides on the progression of established lung fibrosis can be assessed by monitoring lung fibrosis, lung weight, inflammatory cells in bronchoalveolar lavage fluid (BALF), soluble collagen in BALF, and body weight change in a therapeutic mouse model of idiopathic pulmonary fibrosis. Lung fibrosis was induced in lungs of male C57BL/6 mice between the ages of 6 to 8 weeks by nasophayngeal administration of bleomycin (1.5 U/kg using bleomycin clinical formulation diluted in PBS). A control group of animals were administered saline by the nasopharyngeal route (no-bleomycin control group). After one week, bleomycin-treated animals were randomized to treatment groups (N=10 per group) by body weight and treated daily with vehicle control, nintedanib positive control (60 mg/kg/day PO) or peptide (5 mg/kg/day by intraperitoneal injection). After 14 days of treatment (Day 21), lungs were removed and weighed. The post-caval lobe was separated and snap frozen. The lungs were flushed with Hanks Buffer and bronchoalveolar lavage fluid (BALF) was harvested from each animal. Total BALF leukocyte were counted. Slides were prepared from the remaining BALF leukocytes, fixed and stained with May Geimsa stain and the differential counts were recorded manually. BALF was evaluated for soluble collagen using a Sircol assay. Lungs were fixed in 10% neutral buffered formalin (NBF) for histopathological analysis. Fibrosis was assessed by histopathological analysis of H&E stained mouse lungs using an Ashcroft scoring system.

[2] = test system: DSS-induced colitis in female C57BL/6NTac mice; experiment: DSS-induced colitis mouse model of inflammatory bowel disease; format: in vivo; conditions: 3% DSS 8 days; peptides 10 mg/kg/day intraperitoneal; CsA 80 mg/kg/day oral; AUC over 8 days
Method: The effect of the peptides on inflammatory disease can be assessed by monitoring fecal blood, stool consistency, and body weight loss in a DSS-induced colitis mouse model. Colitis was induced in female C57BL/6NTac mice (9-11 weeks old) by continuous ad libitum oral administration of dextran sodium sulfate (DSS) 3% in sterile drinking water for 8 days. Control (No DSS) mice received sterile water instead of DSS solution. Peptides were administered intraperitoneally once daily at 10 mg/kg/day for 8 days in combination with oral DSS. […] Daily assessments included body weight loss score, fecal blood score, stool consistency score, and composite disease activity index (DAI) score, based on the first three parameters combined. Scores recorded on each day over 8 days were used to calculate area under the curve (AUC) values for each endpoint in individual animals.

[3] = test system: H4IIE Rat Hepatoma Cells; experiment: Insulin-dependent effect on glucose production by cultured rat liver cells; format: cell-based; conditions: for Glucose Levels, MEAN % Control, +Insulin: peptide 10 μM + insulin 800 pM, percent of insulin (800 pM); for Glucose Levels, MEAN % Control, +Insulin / Glucose Levels, MEAN % Control, −Insulin: 24 hour; for Glucose Levels, MEAN % Control, −Insulin: peptide 10 μM alone, percent of untreated control cells
Method: The effect of the peptides on glucose production was assessed in the absence and presence of insulin using an assay of glucose levels in cultured cells such as rat hepatocytes. Peptides were initially prepared as 10 mM stock in DMSO and used at a final concentration of 10 μM (0.1% DMSO). Insulin (800 pM) was used as a partial inhibitor of glucose production. H4-IIE cells purchased from ATCC (Manassas, Va.) were seeded at 100,000 cells/well in standard medium (DMEM/high glucose+10% FBS+1× Glutamax+antibiotics) on 96-well plates and allowed to adhere overnight at 37° C. in a humidified atmosphere of 5% CO2/95% air. Approximately 24 h after seeding, the medium was removed, cells rinsed with glucose free DMEM, and Glucose Production Medium (glucose free DMEM+2 mM sodium pyruvate+10 mM sodium lactate) was added. The cultures were placed at 37° C. in a humidified atmosphere of 5% CO2/95% air overnight. The next morning, the medium was removed and fresh Glucose Production Medium containing compounds was added. Insulin at 800 pM was added to control wells. Peptides (10 μM) in the absence or presence of insulin (800 pM) were added to test wells. Cells in the presence of compounds were placed at 37° C. in a humidified atmosphere of 5% CO2/95% air overnight. After 24 hour incubation, conditioned medium from each well was transferred to a fresh 96-well plate for quantitation of glucose content. Quantitation of glucose levels was determined using an Amplex Red Glucose Assay kit (Abacm; Cambridge, Mass.) according to the manufacturer's instructions using a Cytation 3 plate reader at 570 nm (BioTek, Winooski, Vt.). Absorbance values were expressed as a percent of untreated control cells (maximum glucose production) for peptide alone samples or insulin (800 pM) for peptides in the presence of insulin (800 pM. Glucose levels for insulin (800 pM) treatment were ˜80-90% of the untreated control values. The results are reported in Table 15.

[4] = test system: 3T3-L1 Mouse Adipocytes; experiment: Insulin-dependent effect on free fatty acid levels in cultured mouse adipocytes; format: cell-based; conditions: for Free Fatty Acid Levels, MEAN % ISO, +Insulin: peptide 10 μM + insulin 0.25 nM, percent of isoproterenol (0.1 nM)+insulin (0.25 nM); for Free Fatty Acid Levels, MEAN % ISO, +Insulin / Free Fatty Acid Levels, MEAN % ISO, −Insulin: 3 hours; for Free Fatty Acid Levels, MEAN % ISO, −Insulin: peptide 10 μM alone, percent of isoproterenol (0.1 nM) treated control cells
Method: The effect of the peptides on fatty acid metabolism was assessed in the absence and presence of insulin using an assay of free fatty acid levels in cultured cells such as mouse adipocytes. Peptides were initially prepared as 10 mM stock in DMSO and used at a final concentration of 10 μM (0.1% DMSO). […] Insulin (0.25 nM) was used as a partial inhibitor and insulin (10 nM) was used as a potent inhibitor of isoproterenol stimulated fatty acid production. Mouse 3T3-L1 cells purchased from ZenBio (Research Triangle Park, N.C.) were seeded at 3,000 cells per well on 96-well plates in Pre-Adipocyte Medium (Zen-Bio) and grown to confluence at 37° C. in a humidified atmosphere of 5% CO2/95% air. Two days after confluence, cells were placed in Adipocyte Differentiation Medium (Zen-Bio) and cultured for three additional days at 37° C. in a humidified atmosphere of 5% CO2/95% air. The culture medium was then partially replaced with Adipocyte Maintenance Medium (Zen-Bio) and the cells maintained at 37° C. in a humidified atmosphere of 5% CO2/95% air with partial medium replacement every other day. At 12 day of differentiation, 96-well cultures were transferred to Adipocyte Maintenance Medium without insulin and placed at 37° C. in a humidified atmosphere of 5% CO2/95% air for two days. Following this incubation period, the medium was removed from 14 day differentiated cultures and replaced with Assay Buffer (Zen-Bio) containing peptides (10 μM), insulin (0.25 nM or 10 nM), isoproterenol (0.1 nM) as appropriate. […] isoproterenol was added to all wells except untreated controls. Insulin at 0.1 nM and 10 nM was added to control wells. Peptides (10 μM) in the absence or presence of insulin (0.25 nM) were added to test wells. Cells in the presence of compounds were placed at 37° C. in a humidified atmosphere of 5% CO2/95% air for 3 hours. At the end of the final 3 h incubation, conditioned assay buffer was removed from each well and place in a fresh 96-well plate for quantitation of free fatty acid content. Free fatty acid concentrations in the assay buffer samples were determined using a Free Fatty Acid Assay kit (Zen-Bio) according to the manufacturer's instructions using a Cytation 3 plate reader at 540 nm (BioTek, Winooski, VD. Absorbance values were corrected for untreated background and expressed as a percent of isoproterenol (0.1 nM) treated control cells for peptides alone or isoproterenol (0.1 nM)+insulin (0.25 nM) for peptides in presence of insulin (0.25 nM). Treatment with isoproterenol […] alone was used as the free fatty acid level stimulatory control. The relative standard deviation of the isoproterenol control was <10%. […] Free fatty acid levels for insulin (10 nM) treatment were <5% of the isoproterenol control value. Free fatty acid levels for insulin (0.25 nM) treatment were 60-80% of the isoproterenol control value.

[5] = test system: 3T3-L1 Mouse Adipocytes; experiment: Free fatty acid levels in cultured mouse adipocytes; format: cell-based; conditions: insulin 100 nM, 1 nM isoproterenol
Method: The effect of the peptides on fatty acid metabolism can be assessed using an assay of free fatty acid levels in cultured cells such as mouse adipocytes. Peptides were initially prepared as 10 mM stock in DMSO and used at a final concentration of 10 μM (0.1% DMSO). […] Mouse 3T3-L1 cells purchased from ZenBio were seeded at 3,000 cells per well in 96-well plates in Pre-adipocyte Medium (Zen-Bio) and grown to confluence at 37° C. in a humidified atmosphere of 5% CO2/95% air. Two days after confluence, cells were placed in Adipocyte Differentiation Medium (Zen-Bio) and cultured for three additional days at 37° C. in a humidified atmosphere of 5% CO2/95% air. The culture media was then replaced with Adipocyte Maintenance Medium (Zen-Bio) and the cells maintained for an additional 9-12 days at 37° C. in a humidified atmosphere of 5% CO2/95% air with partial medium replacement every other day. Following 12-15 days of differentiation, test peptides were added at a final concentration of 10 μM in 0.1% DMSO and incubated for 20-22 hours in Adipocyte Maintenance Medium at 37° C. in a humidified atmosphere of 5% CO2/95% air. After 20-22 hours, 1 nM isoproterenol was added to all wells except untreated controls and test peptides were replenished. Insulin at 100 nM was added to control wells. Cells were incubated for 3 hours in Assay Buffer (Zen-Bio) at 37° C. in a humidified atmosphere of 5% CO2/95% air. Free fatty acid concentrations in the media were determined using a Free Fatty Acid Assay kit (Zen-Bio) according to the manufacturer's instructions using a Cytation 3 plate reader at 540 nm (BioTek, Winooski, Vt.). Absorbance values were corrected for untreated background and expressed relative to isoproterenol treated cells. Treatment with isoproterenol (1 nM) alone was used as the free fatty acid level stimulatory control. The relative standard deviation of the isoproterenol control was <10%. […] Free fatty acid levels for insulin (100 nM) treatment were <5% of the isoproterenol control value.
The effect of the peptides on fatty acid metabolism was assessed using an assay of free fatty acid levels in cultured cells such as mouse adipocytes. Peptides were initially prepared as 10 mM stock in DMSO and used at a final concentration of 10 μM (0.1% DMSO). […] Mouse 3T3-L1 cells purchased from ZenBio were seeded at 3,000 cells per well in 96-well plates in Pre-adipocyte Medium (Zen-Bio) and grown to confluence at 37° C. in a humidified atmosphere of 5% CO2/95% air. Two days after confluence, cells were placed in Adipocyte Differentiation Medium (Zen-Bio) and cultured for three additional days at 37° C. in a humidified atmosphere of 5% CO2/95% air. The culture media was then replaced with Adipocyte Maintenance Medium (Zen-Bio) and the cells maintained for an additional 9-12 days at 37° C. in a humidified atmosphere of 5% CO2/95% air with partial medium replacement every other day. Following 12-15 days of differentiation, test peptides were added at a final concentration of 10 μM in 0.1% DMSO and incubated for 20-22 hours in Adipocyte Maintenance Medium at 37° C. in a humidified atmosphere of 5% CO2/95% air. After 20-22 hours, 1 nM isoproterenol was added to all wells except untreated controls and test peptides were replenished. Insulin at 100 nM was added to control wells. Cells were incubated for 3 hours in Assay Buffer (Zen-Bio) at 37° C. in a humidified atmosphere of 5% CO2/95% air. Free fatty acid concentrations in the media were determined using a Free Fatty Acid Assay kit (Zen-Bio) according to the manufacturer's instructions using a Cytation 3 plate reader at 540 nm (BioTek, Winooski, Vt.). Absorbance values were corrected for untreated background and expressed relative to isoproterenol treated cells. Treatment with isoproterenol (1 nM) alone was used as the free fatty acid level stimulatory control. The relative standard deviation of the isoproterenol control was <10%. […]

COC(=O)c1ccc2c(c1)NC(=O)/C2=C(\Nc1ccc(N(C)C(=O)CN2CCN(C)CC2)cc1)c1ccccc1 [Nintedanib, nintedanib, reference compound]
Mean (SEM) Leukocyte Count in BALF (Percent of Bleomycin Control) ([1]; Day 21, 14 days of treatment): 62.4 (6.08) Percent
Mean (SEM) Lung Weight (Percent of Bleomycin Control) ([1]; Day 21, 14 days of treatment): 75.2 (6.04) Percent
Mean (SEM) Percent Body Weight Change from Baseline ([1]; Day 21, 14 days of treatment): −7.95 (6.09) Percent
Mean (SEM) Collagen Content in BALF (Percent of Bleomycin Control) ([1]; Sircol assay, Day 21): 44.0 (6.48) Percent
Mean (SEM) Ashcroft Score (Percent of Bleomycin Control) ([1]; histopathology, Day 21): 78.70 (9.72) Percent

RVIRACLGVGLLGDL(dA)GK{PEG12} [SEQ ID NO: 29] (RVIRACLGVGLLGDL[dA]GK(PEG12′))
Mean (SEM) Body Weight Loss Score AUC [2]: 2.10 (0.76)
Mean (SEM) Composite Disease Activity Index (DAI) Score AUC [2]: 19.8 (1.99)
Mean (SEM) Fecal Blood Score AUC [2]: 12.8 (1.04)
Mean (SEM) Stool Consistency Score AUC [2]: 5.05 (0.78)

RVIRACLGVGLLGDL(dA)GK{PEG12} [SEQ ID NO: 30] (RVIRACLGVGLLGDL[dA]GK(PEG12′); not fully specified; printed as RVIRACLGVGLLGDL(dA)GK{PEG12}) [possibly the dimer of this chain]
Mean (SEM) Body Weight Loss Score AUC [2]: 0.95 (0.69)
Mean (SEM) Composite Disease Activity Index (DAI) Score AUC [2]: 14.9 (0.86)
Mean (SEM) Fecal Blood Score AUC [2]: 9.30 (0.44)
Mean (SEM) Stool Consistency Score AUC [2]: 4.65 (0.48)

RVIRMCLNNGLNGEL(dA)G (RVIRMCLNNGLNGEL[dA]G) [SEQ ID NO: 22]
Glucose Levels, MEAN % Control, +Insulin [3]: 0.5%
Glucose Levels, MEAN % Control, −Insulin [3]: -0.4%
Free Fatty Acid Levels, MEAN % ISO, +Insulin [4]: 25.3%
Free Fatty Acid Levels, MEAN % ISO, −Insulin [4]: 93.6%

RVIRMCLNVGLEGEL(dA) (RVIRMCLNVGLEGEL[dA]) [SEQ ID NO: 19]
Glucose Levels, MEAN % Control, +Insulin [3]: 3.7%
Glucose Levels, MEAN % Control, −Insulin [3]: 12.5%
Free Fatty Acid Levels, MEAN % ISO, +Insulin [4]: 24.7%
Free Fatty Acid Levels, MEAN % ISO, −Insulin [4]: 67.1%

RVIRMCLNVGLNGE [SEQ ID NO: 21]
Glucose Levels, MEAN % Control, +Insulin [3]: 78.2%
Glucose Levels, MEAN % Control, −Insulin [3]: 102%
Free Fatty Acid Levels, MEAN % ISO, +Insulin [4]: 40.0%
Free Fatty Acid Levels, MEAN % ISO, −Insulin [4]: 102%

insulin: highly potent positive control for decreasing free fatty acid levels; partial inhibitor of glucose production
Glucose levels, % of the untreated control values ([3]; insulin 800 pM): 80-90%
Free fatty acid levels, % of the isoproterenol control value [5]: < 5%
Free fatty acid levels, % of the isoproterenol control value ([4]; insulin 0.25 nM): 60-80%
Free fatty acid levels, % of the isoproterenol control value ([4]; insulin 10 nM): < 5%

{PEG12}KRVIRMCLNVGLLGEL(dA)E ([PEG12′]KRVIRMCLNVGLLGEL[dA]E) [SEQ ID NO: 18]
Glucose Levels, MEAN % Control, +Insulin [3]: 95.4%
Glucose Levels, MEAN % Control, −Insulin [3]: 101%
Free Fatty Acid Levels, MEAN % ISO, +Insulin [4]: 93.6%
Free Fatty Acid Levels, MEAN % ISO, −Insulin [4]: 107%
